{
  "source": "patent US20110280813A1",
  "about": "“NEURAMINIDASE INHIBITORS AND USES THEREOF” (priority 2008, published 2011)",
  "key": {"[1]": {"target": "T1, P. aeruginosa neuraminidase (NanPs) (Pseudomonas aeruginosa, UniProt G3XCV3)", "T1 sequence (G3XCV3 entry or part of it)": "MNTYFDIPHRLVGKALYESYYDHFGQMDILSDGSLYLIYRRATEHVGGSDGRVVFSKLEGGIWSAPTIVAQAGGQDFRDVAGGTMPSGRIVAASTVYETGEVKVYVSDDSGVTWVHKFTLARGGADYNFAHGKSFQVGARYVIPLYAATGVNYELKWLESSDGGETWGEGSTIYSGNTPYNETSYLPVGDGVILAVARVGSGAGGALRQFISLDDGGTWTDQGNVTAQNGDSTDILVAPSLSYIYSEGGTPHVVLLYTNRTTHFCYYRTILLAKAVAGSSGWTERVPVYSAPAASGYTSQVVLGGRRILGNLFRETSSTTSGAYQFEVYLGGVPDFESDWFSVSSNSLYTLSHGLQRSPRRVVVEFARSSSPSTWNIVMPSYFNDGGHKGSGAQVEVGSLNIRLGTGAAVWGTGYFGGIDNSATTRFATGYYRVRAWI", "settings": "read-out: concentration for 50% inhibition of the P. aeruginosa neuraminidase; from reference A37; cited from earlier work"}, "[2]": {"target": "T2, S. pneumoniae neuraminidase (NanA) (Streptococcus pneumoniae, UniProt P62575)", "T2 construct": "residues 116-1035 of S. pneumoniae D39 sialidase A precursor (NanA); made in house; host or cells: E. coli BL21(DE3), pET28a", "T2 sequence (P62575 116-1035)": "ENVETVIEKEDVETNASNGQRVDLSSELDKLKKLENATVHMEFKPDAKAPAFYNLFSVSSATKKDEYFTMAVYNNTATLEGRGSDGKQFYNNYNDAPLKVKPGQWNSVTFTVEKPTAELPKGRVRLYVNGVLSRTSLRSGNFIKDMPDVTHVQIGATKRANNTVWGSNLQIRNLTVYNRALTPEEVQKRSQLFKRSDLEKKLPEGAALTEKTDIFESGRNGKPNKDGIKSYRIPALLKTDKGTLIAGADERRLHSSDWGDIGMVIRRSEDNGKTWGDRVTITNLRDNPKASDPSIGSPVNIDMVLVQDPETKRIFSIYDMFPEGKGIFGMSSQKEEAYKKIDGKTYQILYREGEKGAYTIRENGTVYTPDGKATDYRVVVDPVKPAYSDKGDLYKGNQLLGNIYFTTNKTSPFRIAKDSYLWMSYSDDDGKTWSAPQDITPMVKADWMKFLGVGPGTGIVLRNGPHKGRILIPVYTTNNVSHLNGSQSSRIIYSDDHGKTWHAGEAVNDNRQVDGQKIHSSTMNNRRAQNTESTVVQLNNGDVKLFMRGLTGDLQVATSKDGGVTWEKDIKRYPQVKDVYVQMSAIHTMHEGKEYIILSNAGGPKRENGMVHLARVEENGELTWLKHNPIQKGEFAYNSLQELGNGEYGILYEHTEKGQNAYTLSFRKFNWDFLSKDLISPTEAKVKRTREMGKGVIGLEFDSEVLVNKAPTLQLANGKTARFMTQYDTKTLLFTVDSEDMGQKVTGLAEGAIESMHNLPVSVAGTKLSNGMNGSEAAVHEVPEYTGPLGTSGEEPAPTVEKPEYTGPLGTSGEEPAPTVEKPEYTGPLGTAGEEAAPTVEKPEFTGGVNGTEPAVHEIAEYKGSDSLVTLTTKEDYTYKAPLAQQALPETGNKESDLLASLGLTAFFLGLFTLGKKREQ", "experiment": "Neuraminidase assay with fluorogenic substrate MNN, NanA", "format": "biochemical", "procedure": "(§1) Neuraminidase assay. Neuraminidase activity of NanA was detected using the fluorogenic substrate 2′-(4-methylumbelliferyl)-α-D-N-acetylneuraminic acid (MNN, Sigma). Reactions contained 1.5 mM MNN, 1 nM of NanA in 2.5 mM sodium phosphate buffer (pH 5). Reactions were allowed to incubate for 2 h at 37° C. before fluorescence intensity was measured at excitation and emission wavelengths of 360 nm and 465 nm in a Tecan microplate reader (Männedorf, Switzerland). NanPs was assayed as above with 1 mM of enzyme in 7.5 mM sodium chloride and 4 mM calcium chloride. Compounds were screened at a concentration of 100 μM before dose-dependence was established. Compounds were obtained from a variety of sources (Otava, Kyiv, Ukraine; Interbioscreen, Moscow, Russia; Chembridge San Diego, USA; Maybridge, Cornwell, UK; Sigma, St Louis, USA; Princeton, Princeton, USA; Lifechem, Burlington, Canada; Enamine, Kiev, Ukraine). Neuraminidase assays with oseltamivir were performed using the hydrolyzed version of the compound. Divalent cations were supplied in the form of calcium, magnesium, ferric and copper chloride. All neuraminidase assays were performed at least in triplicate.\nas §1, with “assay. NanA was purified as previously described (B19).” for “assay.”, “Switzerland).” for “Switzerland). NanPs was assayed as above with 1 mM of enzyme in 7.5 mM sodium chloride and 4 mM calcium chloride. Compounds were screened at a concentration of 100 μM before dose-dependence was established.”, “Kiev,” for “Kyiv,”, “compound. Briefly, a mixture of oseltamivir (300 mg) in methanol (10 ml) was added to 5N NaOH (3 ml). The mixture was stirred overnight and evaporated under reduced pressure. The residue was dissolved in 10 ml H2O and the washed with 5 ml of ethyl acetate. The aqueous solution was acidified with 5N HCl to pH=2-3. Evaporation of water under reduced pressure gave the hydrolyzed product. […]” for “compound.”"}, "[3]": {"tested_on": "S. pneumoniae wild-type D39 biofilm", "experiment": "Biofilm formation after epithelial cell interaction (crystal violet microtitre assay)", "format": "cell-based, Streptococcus pneumoniae", "procedure": "(§2) Biofilm assay. Bacterial strains were grown to mid-log phase before being diluted 1:100 in TS broth and catalase. 100 μl of diluted culture was added in triplicate to 96-well flat bottom tissue culture treated plates (Falcon) and left for 18-24 h at 37° C. with 5% CO2. Plates were read at 600 nm to determine levels of growth before being washed in water. Adherent biofilm-forming cells were then stained with 125 μL of 1% crystal violet for 15 min before two further washes in water and allowed to dry. Bound crystal violet was then suspended in 200 μL of ethanol, shaken for 15 min and read at 540 nm.\n(§3) Biofilm formation after epithelial cell interaction. Bacterial strains were grown and inoculated onto 1HAEo^− cells as per adherence assay. After the initial PBS washes fresh MEM media was applied before a further 1 h incubation. This removal and addition of fresh media was repeated a further four times before detachment of adherent bacteria using TrypLE Express (Gibco). The detached bacteria were then diluted 1:100 in TS broth and catalase and assayed as per the biofilm assay. Samples were repeated four times, each time in sextuplicate using epithelial cells without bacteria as a negative control.\nas §3, with “control. […] Fluorescence microscopy was performed using a Zeiss Observer Z1 inverted fluorescence microscope with ApoTome (Zeiss) for optical sectioning and AxioVision software (v 4.6.2.0, Zeiss). […]” for “control.”"}, "[4]": {"target": "T1, P. aeruginosa neuraminidase (NanPs)", "experiment": "Neuraminidase assay with fluorogenic substrate MNN, NanPs", "format": "biochemical", "procedure": "as §1"}, "[5]": {"tested_on": "S. pneumoniae planktonic cells", "experiment": "Growth of planktonic cells (600 nm reading in biofilm assay)", "format": "cell-based, Streptococcus pneumoniae", "procedure": "as §2\nas §3, with “control. […] Fluorescence microscopy was performed using a Zeiss Observer Z1 inverted fluorescence microscope with ApoTome (Zeiss) for optical sectioning and AxioVision software (v 4.6.2.0, Zeiss). […]” for “control.”"}},
  "note": "“Also recorded” adds a separate entry of the source. Where two headings read alike, the source gives them in different places.",
  "data": [
    {"smiles": "CC(=O)N[C@H]1[C@H]([C@H](O)[C@H](O)CO)OC(C(=O)O)=C[C@@H]1O", "note": "[DANA, 2,3-dehydro-2-deoxy-N-acetylneuraminic acid]", "values": [
      {"measurement": "IC50", "setting": "[1]", "value": "~10000", "unit": "µM"}
    ]},
    {"smiles": "CC(=O)N[C@@H]1[C@@H](O)C[C@](Oc2ccc3c(C)cc(=O)oc3c2)(C(=O)O)O[C@H]1C(O)[C@H](O)CO", "note": "(stereo partly drawn) [MNN, 2′-(4-methylumbelliferyl)-α-D-N-acetylneuraminic acid, reference compound]", "values": [
      {"measurement": "Km", "setting": "[2]", "value": "~1400", "unit": "µM"}
    ]},
    {"smiles": "CC(=O)N[C@H]1[C@H]([C@H](O)[C@H](O)CO)OC(O)(C(=O)O)C[C@@H]1O", "note": "(stereo partly drawn) [NANA, N-acetylneuraminic acid, reference compound]", "values": [
      {"measurement": "IC50", "setting": "[1]", "value": "~10000", "unit": "µM"},
      {"measurement": "biofilm formation of the wild-type (D39) strain", "setting": "[3]; 0.2% w/v NANA", "value": "decreased biofilm formation; also recorded: reduced biofilm formation"},
      {"measurement": "IC50", "setting": "[2]", "value": 600, "unit": "µM"}
    ]},
    {"smiles": "CCOC(=O)C1=C[C@@H](OC(CC)CC)[C@H](NC(C)=O)[C@@H](N)C1", "note": "[Oseltamivir, oseltamivir, reference compound]", "values": [
      {"measurement": "IC50", "setting": "[4]", "value": "~600", "unit": "µM"},
      {"measurement": "IC50", "setting": "[2]; IC50 against NanA, hydrolyzed version of oseltamivir", "value": 2000, "unit": "µM"}
    ]},
    {"smiles": "COc1ccc([C@H]2[C@H](C(=O)c3ccc(Cl)cc3)C(=O)C(=O)N2c2cccc(C(=O)O)c2)cc1", "note": "[XX1]", "values": [
      {"measurement": "IC50", "setting": "[4]", "value": 29, "unit": "µM"},
      {"measurement": "biofilm formation", "setting": "[3]; 100 μM, inhibitor present during epithelial cell exposure and in microtitre trays", "value": "significant reduction in biofilm formation"},
      {"measurement": "levels of biofilm formation", "setting": "[3]; 400 μM, inhibitor present during epithelial cell exposure and in microtitre trays", "value": "comparative to the nanA strain"},
      {"measurement": "inhibition of NanA, times more effective than DANA", "setting": "[2]; Example 1", "value": "greater than 20 times"},
      {"measurement": "inhibition of NanA, times more effective than NANA", "setting": "[2]; Example 1", "value": "> 80", "unit": "times"},
      {"measurement": "inhibition of NanA, times more effective than oseltamivir", "setting": "[2]; Example 1", "value": "> 200", "unit": "times"},
      {"measurement": "inhibition of NanA, times more effective than DANA", "setting": "[2]; Example 3", "value": "greater than 7 times"},
      {"measurement": "inhibition of NanA, times more effective than NANA", "setting": "[2]; Example 3", "value": "> 20", "unit": "times"},
      {"measurement": "inhibition of NanA, times more effective than oseltamivir", "setting": "[2]; Example 3", "value": "> 70", "unit": "times"},
      {"measurement": "IC50", "setting": "[2]; IC50 against NanA, Example 3, dose response fitted with logarithmic-based trend line", "value": 28, "unit": "µM"},
      {"measurement": "IC50", "setting": "[2]; IC50 for the S. pneumoniae neuraminidase, Example 1, dose response fitted with power-based trend line", "value": 8.5, "unit": "µM"},
      {"measurement": "growth of planktonic cells", "setting": "[5]", "value": "did not affect growth"}
    ]},
    {"smiles": "[Ca]", "note": "[calcium]", "values": [
      {"measurement": "increase in NanA activity", "setting": "[2]; 1 mM calcium", "value": 70, "unit": "%"}
    ]},
    {"smiles": "[Mg]", "note": "[magnesium]", "values": [
      {"measurement": "increase in NanA activity", "setting": "[2]; presence of magnesium ions", "value": 50, "unit": "%"}
    ]}
  ]
}
